{
  "source": "patent US9718809B2",
  "about": "“Bisarylsulfonamides useful in the treatment of inflammation and cancer” (Kancera AB, priority 2011, dated 2017)",
  "key": {"[1]": {"test_system": "F-2,6-P2 in NUGC-3 cells", "test": "Quantification of F-2,6-P2 (Van Schaftingen coupled enzyme assay) in NUGC-3 cells", "format": "cell-based", "conditions": "Homo sapiens; NUGC-3 cells seeded at 25 000 cells/well; read-out: IC50 based on quantification of F-2,6-P2", "text": "(§1) A method for quantification of F-2,6-P2 has been described by Van Schaftingen et al. (1982) Eur. J. Biochem. 129, 191-5. This sensitive assay is based on the potent activation of pyrophosphate dependent phosphofructokinase-1 (PPi-PFK) from potato tubers by F-2,6-P2. The use of a series of coupled enzymes leads to a consumption of NADH (nicotinamide adenine dinucleotide) that can be followed spectrophotometrically (an updated protocol is available in Van Schaftingen, (1984) Methods of Enzymatic Analysis (Bergmeyer, H. U., ed.), 3rd edn., vol. 6, pp. 335-341, Verlag Chemie, Weinheim). A protocol for measurements in 96-well microtiter plate format is also available (Bruni et al., (1989) Anal. Biochem. 178, 324-6).\n(§2) The levels of F-2,6-P2 have been determined using the van Shaftingen assay as described in the protocol below, in six different cancer cell lines endogenously expressing varying levels of the different isoforms of PFK-2/BPase-2 (MCF-7, PANC-1, NUGC-3, SW480, SW620 and MIA PaCa-2). All reagents were purchased from commercial sources or prepared in-house.\nCell line C (NUGC-3, human gastric cancer cell line): NUGC-3 cells (JCRB0822), lot no. 04272009. Growth medium: RPMI1640, #R8758, Sigma-Aldrich; 10% FBS, Invitrogen, 10270-106 or Dulbecco's Modified Eagle's Medium, DMEM, VWR, LONZ12-604F; 10% FBS, Invitrogen, 10270-106. Cells were seeded at a concentration of ˜350 000 cells/mL in 100 μL growth medium (˜35 000 cells/well).\nStarvation medium (cell lines A-F): DMEM/F12 without phenol red and glucose free, SVA, 991373; 0.25% FBS, Invitrogen, 10270-106.\nInduction medium (cell lines A-F): DMEM/F12 without phenol red and glucose free, SVA, 991373; 0.25% FBS, Invitrogen, 10270-106 (same as starvation medium).\nCells were seeded in 96-well Corning Costar tissue culture plates (CLS3595, Sigma-Aldrich) using the concentrations specified above for the different cell lines A-F and incubated over night at 37° C. and 5% CO2. Row A in the plate was left empty and the cell lines added to rows B-H. Next day the growth medium was discarded and replaced with 100 μL starvation medium. The plates were incubated for 18 h at 37° C. and 5% CO2. After 18 h of starvation the cells were induced with 100 μL compound or control solutions. Compounds were either tested in two concentrations (50 μM and 10 μM) or in dose response curves starting from 50 μM. The final DMSO concentration in assay plates was 0.5%. Also a dose response curve of a reference inhibitor was included in row H on each plate. All compounds were tested in duplicate plates. Compounds (in 96 well CLS 3365, Sigma-Aldrich plates) were serial diluted in DMSO from 10 mM compound DMSO stock solutions with Janus (automated liquid handling workstation from PerkinElmer). Five μL were transferred to a Greiner deep well plate (736-0155, VWR) with 495 μL starvation medium. The final start concentration of compounds in the dilution plate was 100 μM, 1% DMSO. For compounds tested as single points, 10 mM compound solutions were diluted five fold in DMSO to 2 mM, followed by the transfer of 5 μL to separate dilution plates with 495 μL starvation medium. The final concentrations of compounds in these dilution plates were 100 or 20 μM, respectively, and final concentration of DMSO was 1%. The plates were incubated at 37° C. and 5% CO2 for 1 h, followed by the addition of 10 μL 20 mM D-glucose in starvation medium. Controls, with and without 1 mM glucose, were included in row B. The final assay volume was 210 μL per well. After 2 h of incubation at 37° C. and 5% CO2, the supernatants were discarded and the cells lysed by the addition of 25 μL 250 mM NaOH. The plates were incubated at 37° C. and 5% CO2 for 5 min followed by an addition of 75 μL MilliQ dH2O. The supernatants were further diluted with 210 μL MilliQ dH2O to a final concentration of 20 mM NaOH. 200 μL were transferred to NUNC 96-well plates (7322661, VWR) and the plates were sealed and stored at −20° C. until analysis. […]"}, "[2]": {"test_system": "F-2,6-P2 in SW480 cells", "test": "Quantification of F-2,6-P2 (Van Schaftingen coupled enzyme assay) in SW480 cells", "format": "cell-based", "conditions": "Homo sapiens, read-out: IC50 based on quantification of F-2,6-P2", "text": "as §1, §2\nCell line D (SW480, human colorectal adenocarcinoma): SW480 cells (ATCC-CCL-228), lot. no. 58471880. Cells were seeded at a concentration of ˜350 000 cells/mL in 100 μL growth medium (˜35 000 cells/well).\n(§3) Growth medium (cell lines B-F): Dulbecco's Modified Eagle's Medium, DMEM, VWR, LONZ12-604F; 10% FBS, Invitrogen, 10270-106. […]"}, "[3]": {"test_system": "F-2,6-P2 in SW620 cells", "test": "Quantification of F-2,6-P2 (Van Schaftingen coupled enzyme assay) in SW620 cells", "format": "cell-based", "conditions": "Homo sapiens, SW-620, read-out: IC50 based on quantification of F-2,6-P2", "text": "as §1, §2\nCell line E (SW620, human colorectal adenocarcinoma): SW620 cells (ATCC-CCL-227), lot. no. 58483168. Cells were seeded at a concentration of ˜350 000 cells/mL in 100 μL growth medium (˜35 000 cells/well).\nas §3"}, "[4]": {"test_system": "PANC-1 cells", "test": "Inhibition of cancer cell proliferation, total cellular protein (Sulphorhodamine B), PANC-1", "conditions": "Homo sapiens, 72 h, read-out: IC50 based on quantitation of total cellular protein after treatment", "experimental": "To assess the antiproliferative response elicited by the compounds of the present invention in different tumour cell lines, total cellular protein in samples was quantified using the Sulphorhodamine B kit, TOX6, (Sigma-Aldrich). The protocol is based on quantitation of total cellular protein after indicated treatments and incubation times using the Sulphorhodamine B kit, TOX6, (Sigma-Aldrich).\n(§4) Briefly, after protein precipitation using TCA according to the manufacturer's instructions, the sulphorhodamine dye (80 μL/well) was added to the air-dried wells. After 20 min incubation at room temperature, the dye was discarded and the samples were gently rinsed with 1% HOAc until clear. After air drying, bound dye was solubilised in 200 μL 10 mM Tris base, and the absorbance of dye was measured at 565 nm. To quantify growth, samples were collected also at t=0 h, and the resulting absorbance was set to 100%.\nFor experiments studying the effect of the herein described compounds per se, i.e. without combination treatment with cisplatin, the above protocol was applied with the following modifications. See Table II for details for each specific cell line. Briefly, cells were plated at a density of 6,000 cells/well 96-well Corning Costar tissue culture plates (CLS3596, Sigma-Aldrich) in assay medium and allowed to attach over night at 37° C., 5% CO2. Day 2 the compounds were diluted ½ in dose response curve mode in 100% DMSO, required volume was transferred to assay medium to a maximal DMSO concentration of 0.1%. The diluted compounds were added to the cells with a starting dose response concentration of 100 μM. All compounds were tested in duplicate plates.\nas §4, with “After” for “Briefly, after”, “sulforhodamine B” for “sulphorhodamine”, “(50” for “(80”, “100” for “200”, “530 nm and a background absorbance (subtract from the measurement at 530 nm) at 690” for “565”, “h.” for “h, and the resulting absorbance was set to 100%.”"}, "[5]": {"test_system": "F-2,6-P2 in MIA PaCa-2 cells", "test": "Quantification of F-2,6-P2 (Van Schaftingen coupled enzyme assay) in MIA PaCa-2 cells", "format": "cell-based", "conditions": "Homo sapiens, read-out: IC50 based on quantification of F-2,6-P2", "text": "as §1, §2\nCell line F (MIA PaCa-2, human pancreatic carcinoma): MIA PaCa-2 cells (ATCC-CRL-1420), lot. no. 59270201. Cells were seeded at a concentration of ˜250 000 cells/mL in 100 μL growth medium (˜25 000 cells/well). […]"}, "[6]": {"test_system": "NMRI mice", "test": "In vivo tolerance in NMRI mice", "parameters": "species or system mouse", "conditions": "25 and 45 mg/kg", "experimental": "In vivo tolerance was tested in NMRI mice using Examples 157 and 183 in 2 doses (25 and 45 mg/kg), following intraperitoneal injections daily for seven days."}},
  "data": [
    {"smiles": "COC(=O)c1ccc(NS(=O)(=O)c2cccc(-c3ccccc3O)c2)cc1O", "note": "[Example 82, Methyl 2-hydroxy-4-{[(2′-hydroxybiphenyl-3-yl)sulfonyl]amino}benzoate]", "values": [
      {"measurement": "IC50", "setting": "[1]", "value": 1.08, "unit": "µM"},
      {"measurement": "IC50", "setting": "[2]", "value": 6.2, "unit": "µM"}
    ]},
    {"smiles": "COC(=O)c1ccc(NS(=O)(=O)c2cc(-c3ccccc3O)c(Cl)s2)cc1O", "note": "[Example 156, Methyl 4-({[5-chloro-4-(2-hydroxyphenyl)-2-thienyl]sulfonyl}amino)-2-hydroxybenzoate]", "values": [
      {"measurement": "IC50", "setting": "[3]", "value": 2.8, "unit": "µM"},
      {"measurement": "IC50", "setting": "[4]", "value": 16.1, "unit": "µM"}
    ]},
    {"smiles": "COC(=O)c1ccc(NS(=O)(=O)c2cc(-c3cc(F)ccc3O)c(Cl)s2)cc1O", "note": "[Example 157, methyl 4-({[5-chloro-4-(5-fluoro-2-hydroxyphenyl)-2-thienyl]sulfonyl}amino)-2-hydroxybenzoate]", "values": [
      {"measurement": "IC50", "setting": "[5]", "value": 2, "unit": "µM"},
      {"measurement": "histological examinations of organs", "setting": "[6]; intraperitoneal daily for seven days, adrenal gland, brain, cerebellum, heart, intestines, kidneys, liver, lungs, mesenteric lymph node, pancreas, spleen", "value": "Specific lesions consistent with toxic damage were not observed"},
      {"measurement": "macro observations during and after treatment", "setting": "[6]; intraperitoneal injections daily for seven days", "value": "no sign of abnormal behavior or health problem"}
    ]},
    {"smiles": "O=C(OCCCN1CCOCC1)c1ccc(NS(=O)(=O)c2c(Cl)sc(Cl)c2Cl)cc1O", "note": "[Example 164, 3-Morpholin-4-ylpropyl 2-hydroxy-4-{[(2,4,5-trichloro-3-thienyl)sulfonyl]amino}benzoate]", "values": [
      {"measurement": "IC50", "setting": "[2]", "value": 5.4, "unit": "µM"}
    ]},
    {"smiles": "COCC(C)OC(=O)c1ccc(NS(=O)(=O)c2cc(Cl)c(Cl)s2)cc1O", "note": "(stereo not drawn) [Example 194, 2-Methoxy-1-methylethyl 4-{[(4,5-dichlorothiophen-2-yl)sulfonyl]amino}-2-hydroxybenzoate]", "values": [
      {"measurement": "IC50", "setting": "[3]", "value": 0.8, "unit": "µM"}
    ]}
  ]
}
